According to patent US12336554B2, “Cannabinoid acid beverage” (CHEMTOR, LP, priority 2020, dated 2025):

Assay: Dissolution of THCA crystalline powder in distilled water at different pH
Type: physicochemical
Method: 50 mgs of high purity (>99% by weight) THCA crystalline powder was added to 250 ml of distilled water at a pH of 6.5.
The distilled water and THCA from Comparative Example 1 was brought to a pH of 9.5 through the addition of a base and warmed to 40° C.

CCCCCc1cc2c(c(O)c1C(=O)O)[C@@H]1C=C(C)CC[C@H]1C(C)(C)O2 [THCA, tetrahydrocannabinolic acid]
Dissolution in distilled water after heating (50 mgs in 250 ml distilled water, pH 6.5, heated to 100° C.): still did not dissolve | Dissolution in distilled water (50 mgs in 250 ml distilled water, pH 6.5, immediately and after stirring): did not immediately dissolve, not did it dissolve after stirring | Dissolution in alkaline water (50 mgs in 250 ml water, pH 9.5 by addition of a base, warmed to 40° C.): dissolved into solution and produced a clear aqueous solution | Solution stability after cooling (pH 9.5 solution cooled to room temperature): the solution remained clear
